Measured values reported in ChEMBL document CHEMBL1155704, “Acetylated analogues of the microtubule-stabilizing agent discodermolide: preparation and biological activity” (J Nat Prod, 2001).

Tested on: P388
Assay: Cytotoxicity against mouse P388 cells after 48 hrs by MTT assay
Assay type: functional, cell-based
Conditions: P388, 48 h

Question: Which IC50 does the source give for `C=C/C=C\[C@H](C)[C@H](OC(N)=O)[C@@H](C)[C@H](O)[C@@H](C)C/C(C)=C\[C@H](C)[C@@H](O)[C@@H](C)/C=C\[C@H](C[C@@H]1OC(=O)[C@H](C)[C@@H](O)[C@H]1C)OC(C)=O` here?
Answer: 0.0039 µM

Question: With `C=C/C=C\[C@H](C)[C@H](OC(N)=O)[C@@H](C)[C@H](O)[C@@H](C)C/C(C)=C\[C@H](C)[C@@H](OC(C)=O)[C@@H](C)/C=C\[C@H](C[C@@H]1OC(=O)[C@H](C)[C@@H](OC(C)=O)[C@H]1C)OC(C)=O` as the compound, how does the IC50 read?
Answer: 0.166 µM

Question: `C=C/C=C\[C@H](C)[C@H](OC(N)=O)[C@@H](C)[C@H](O)[C@@H](C)C/C(C)=C\[C@H](C)[C@@H](O)[C@@H](C)/C=C\[C@@H](O)C[C@@H]1OC(=O)[C@H](C)[C@@H](OC(C)=O)[C@H]1C` was tested. Which IC50 did it give?
Answer: 0.0126 µM

Question: Which IC50 does the source give for `C=C/C=C\[C@H](C)[C@H](OC(N)=O)[C@@H](C)[C@H](O)[C@@H](C)C/C(C)=C\[C@H](C)[C@@H](O)[C@@H](C)/C=C\[C@H](C[C@@H]1OC(=O)[C@H](C)[C@@H](OC(C)=O)[C@H]1C)OC(C)=O` here?
Answer: 0.00074 µM

Question: How did the IC50 turn out when `C=C/C=C\[C@H](C)[C@H](OC(N)=O)[C@@H](C)[C@H](OC(C)=O)[C@@H](C)C/C(C)=C\[C@H](C)[C@@H](OC(C)=O)[C@@H](C)/C=C\[C@H](C[C@@H]1OC(=O)[C@H](C)[C@@H](OC(C)=O)[C@H]1C)OC(C)=O` was run?
Answer: 0.837 µM

Question: `C=C/C=C\[C@H](C)[C@H](OC(N)=O)[C@@H](C)[C@H](OC(C)=O)[C@@H](C)C/C(C)=C\[C@H](C)[C@@H](O)[C@@H](C)/C=C\[C@H](C[C@@H]1OC(=O)[C@H](C)[C@@H](OC(C)=O)[C@H]1C)OC(C)=O` was tested. Which IC50 did it give?
Answer: > 6.92 µM

Question: How did the IC50 turn out when `C=C/C=C\[C@H](C)[C@H](OC(N)=O)[C@@H](C)[C@H](O)[C@@H](C)C/C(C)=C\[C@H](C)[C@@H](OC(C)=O)[C@@H](C)/C=C\[C@@H](O)C[C@@H]1OC(=O)[C@H](C)[C@@H](OC(C)=O)[C@H]1C` was run?
Answer: 0.103 µM

Question: For `C=C/C=C\[C@H](C)[C@H](OC(N)=O)[C@@H](C)[C@H](OC(C)=O)[C@@H](C)C/C(C)=C\[C@H](C)[C@@H](O)[C@@H](C)/C=C\[C@@H](O)C[C@@H]1OC(=O)[C@H](C)[C@@H](OC(C)=O)[C@H]1C`, which IC50 is on record?
Answer: 1.15 µM
